From US9156824B2, “CDC7 inhibitors” (Eli Lilly and Company, priority 2013, dated 2015)

Tested on: phosphorylated MCM2 at Serine 53 (pMCM2-S53) in H1299 cells
Assay: Acumen imaging assay for detection of phosphorylated MCM2 in H1299 cells
Assay type: cell-based
Details: 4 hours treatment, Hydrate, read-out: IC50, inhibition of pMCM2-S53
Method: The Acumen® eX3 is used to determine the effect of compounds on the formation of endogenous phosphorylated MCM2 at Serine 53 (pMCM2-S53). Phosphorylation of MCM2 by CDC7 is determined using specific anti-pMCM2-S53 antibody and quantified with fluorescent tagged secondary antibodies by Acumen® eX3 to monitor CDC7 activity in cells. Phosphorylation of MCM2 at Serine 53 is known to be correlated to CDC7 inhibition.
H1299 cells (ATCC #CRL-5803) are maintained in RPMI-1640 (Hyclone SH30809.01) growth medium supplemented with 10% FBS. Cells are harvested using standard cell culture procedures and then counted using Vi-Cell XR Cell Viability Analyzer (Beckman Counter). 3000-6000 H1299 cells in 100 μL of growth medium are plated into each well of Biocoat Poly-D-Lysine 96-well black/clear plate with flat bottom BioCoat™ Multiwell (Becton Dickinson) cell culture plates 356640 and incubated overnight at 37° C., 5% CO2.
Cells are treated with the test compound (50 μL/well) diluted in medium containing 0.6% DMSO and incubated for 4 hours at 37° C. To each well is added 7.4% formaldehyde (150 μL) diluted with PBS from 37% formaldehyde stock and the plates are incubated at room temperature for 30 minutes. Formaldehyde is removed and cold methanol (100 μL) is added. The plates are incubated for 20 minutes at 4° C. to permeabilize the cells. Plates are washed 3× with 100 μL/well of PBS. […] The plates are sealed with black seal and are read on the Acumen® eX3 (TTP LABTECH) using optical filter 500-530 nanometer and 575-640 nanometer for Alexa Fluor 488 and propidium iodide, respectively. The number of pMCM2-S53 positive cells is normalized to total cells for each well and are calculated as percent inhibition relative to on-plate controls. […]

`CC1(c2ncncc2F)NC(=O)c2cc(-c3cn[nH]c3)ccc21` (single isomer, unassigned; isomer 2) [Example 4, 3-(5-Fluoropyrimidin-4-yl)-3-methyl-6-(1H-pyrazol-4-yl)isoindolin-1-one, Isomer 2, Hydrate] gave an IC50 of 290 nM.
